Experiment [1] has as its target T1, PI3Kalpha (Homo sapiens, UniProt P42336).
T1 construct: His (N); made in house; host or cells: SF9 insect cells (baculovirus co-infection)
Kind of experiment: Inhibition of PI3Kalpha-induced PIP-2 phosphorylation (filter-binding assay, 33P-ATP). Format: biochemical. To be noted: PI3 Kinase alpha (p85alpha/His-p110alpha), 1 μM ATP; read-out: IC50 PI3Kα.

In experiment [2] the test system is H460 cells. Kind of experiment: alamarBlue H460 cell assay (antiproliferative/cytotoxicity). Type of experiment: cell-based. To be noted: NCI-H460; H460 human lung carcinoma cells. The procedure, abridged:
(§1)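 Cells treated 5–6 days at 37 °C with compound, 10 μM top final concentration, 1:3 steps over 10 dilutions, in duplicate. alamarBlue then added for 8 h; fluorescence read at ex 530–560/em 590 nm, medium blank subtracted, EC50 fitted.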
(The colour change of resazurin is a common sign of viable cells or microbes.)

For experiment [3], the system named is U87 cells. Kind of experiment: alamarBlue U87 cell assay (antiproliferative/cytotoxicity). Type of experiment: cell-based. To be noted: U-87MG human glioblastoma cells. The procedure, abridged: as §1
In experiment [4] the test system is MCF7 cells. Kind of experiment: alamarBlue MCF7 cell assay (antiproliferative/cytotoxicity). Type of experiment: cell-based. The following applies: MCF7 human breast cancer cell line. The method in brief:
as §1

The subject of experiment [5] is MB453 cells. Kind of experiment: alamarBlue MB453 cell assay (antiproliferative/cytotoxicity). Format: cell-based. To be noted: Homo sapiens; MDA MB 453 breast cancer cell line. The procedure, abridged: as §1
Experiment [6] concerns BT474 cells. Put plainly: alamarBlue BT474 cell assay (antiproliferative/cytotoxicity). Format: cell-based. To be noted: BT-474 human breast cancer cell line, 5-6 days incubation. The method in brief: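 Read-out: alamarBlue reduction by metabolically active cells, fluorescence ex 530-560 nm/em 590 nm, measured 8 h after dye addition at 37° C. Cells had been exposed to compound for 5-6 days over a 10-point 1:3 series starting at 10 μM final. EC50 derived after medium-blank subtraction.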

The results in this text go back to patent US8466162B2, “5-alkynyl-pyridines” (Boehringer Ingelheim International GmbH, priority 2011, dated 2013).

One may read the IC50 as the concentration that inhibits the measured activity by half. The EC50 is the concentration giving half of the maximal effect. High values mean a less potent agent, low ones a more potent agent.

T1 sequence (P27986 whole entry): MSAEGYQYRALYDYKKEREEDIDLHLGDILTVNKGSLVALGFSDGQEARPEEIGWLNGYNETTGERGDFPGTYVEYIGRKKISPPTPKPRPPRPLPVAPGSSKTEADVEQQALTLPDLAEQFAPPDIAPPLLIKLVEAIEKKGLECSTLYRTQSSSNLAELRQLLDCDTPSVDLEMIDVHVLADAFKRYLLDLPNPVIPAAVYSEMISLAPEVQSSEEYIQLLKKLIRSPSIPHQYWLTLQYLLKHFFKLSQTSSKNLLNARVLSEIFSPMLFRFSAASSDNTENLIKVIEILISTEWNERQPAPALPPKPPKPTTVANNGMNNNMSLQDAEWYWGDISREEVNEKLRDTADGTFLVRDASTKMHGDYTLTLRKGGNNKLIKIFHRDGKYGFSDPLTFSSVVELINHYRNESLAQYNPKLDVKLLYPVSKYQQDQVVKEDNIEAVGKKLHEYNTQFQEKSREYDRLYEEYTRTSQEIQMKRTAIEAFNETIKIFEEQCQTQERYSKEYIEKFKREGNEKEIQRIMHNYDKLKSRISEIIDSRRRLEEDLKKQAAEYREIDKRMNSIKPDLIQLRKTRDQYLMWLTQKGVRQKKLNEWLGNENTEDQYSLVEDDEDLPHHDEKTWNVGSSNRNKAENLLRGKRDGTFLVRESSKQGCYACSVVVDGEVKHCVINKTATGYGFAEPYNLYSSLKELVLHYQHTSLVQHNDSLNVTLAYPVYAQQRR
T1 sequence (P42336 whole entry): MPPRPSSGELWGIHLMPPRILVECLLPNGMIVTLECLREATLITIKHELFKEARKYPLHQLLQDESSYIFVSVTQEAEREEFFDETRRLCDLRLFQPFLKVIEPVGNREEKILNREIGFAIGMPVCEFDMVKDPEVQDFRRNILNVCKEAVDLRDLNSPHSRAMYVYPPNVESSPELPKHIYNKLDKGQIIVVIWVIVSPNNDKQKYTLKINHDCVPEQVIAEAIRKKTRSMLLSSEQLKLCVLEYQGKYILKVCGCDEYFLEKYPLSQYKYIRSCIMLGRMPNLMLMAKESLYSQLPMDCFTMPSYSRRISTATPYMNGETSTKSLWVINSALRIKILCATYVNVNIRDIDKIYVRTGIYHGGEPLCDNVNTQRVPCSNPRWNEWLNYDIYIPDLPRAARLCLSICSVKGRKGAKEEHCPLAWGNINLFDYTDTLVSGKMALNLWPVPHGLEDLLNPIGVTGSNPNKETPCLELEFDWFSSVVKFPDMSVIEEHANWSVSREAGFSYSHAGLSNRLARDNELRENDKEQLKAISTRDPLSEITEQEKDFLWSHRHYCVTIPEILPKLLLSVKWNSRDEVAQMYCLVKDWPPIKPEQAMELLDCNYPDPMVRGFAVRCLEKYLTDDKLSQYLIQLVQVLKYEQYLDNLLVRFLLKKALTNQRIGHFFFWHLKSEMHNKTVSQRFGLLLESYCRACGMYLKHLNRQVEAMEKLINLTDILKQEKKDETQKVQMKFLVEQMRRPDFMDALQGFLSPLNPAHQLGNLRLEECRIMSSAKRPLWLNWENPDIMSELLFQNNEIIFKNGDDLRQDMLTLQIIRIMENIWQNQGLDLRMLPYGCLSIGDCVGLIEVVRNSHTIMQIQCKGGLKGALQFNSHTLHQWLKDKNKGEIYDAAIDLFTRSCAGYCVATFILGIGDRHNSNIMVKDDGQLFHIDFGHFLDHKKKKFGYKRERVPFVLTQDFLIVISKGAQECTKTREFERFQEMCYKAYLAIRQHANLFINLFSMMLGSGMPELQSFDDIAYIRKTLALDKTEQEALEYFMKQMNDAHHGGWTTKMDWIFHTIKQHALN

Regarding `Cc1ncc(C#Cc2c(C)ncnc2-c2cccc(CN(C)C)c2)cc1NS(C)(=O)=O` [Example 41, N-{5-[4-(3-Dimethylaminomethyl-phenyl)-6-methyl-pyrimidin-5-ylethynyl]-2-methyl-pyridin-3-yl}-methanesulfonamide], the IC50 in experiment [1] was determined as 9 nM. Further, the EC50 stood at 2750 nM in experiment [2]; 25000 nM in experiment [3]; 1860 nM in experiment [4]; 1160 nM in experiment [5]; 1280 nM in experiment [6].

Consider `Cc1ncc(C#Cc2c(C)ncnc2-c2ccccc2)cc1NS(C)(=O)=O` [Example 42, N-[2-Methyl-5-(4-methyl-6-phenyl-pyrimidin-5-ylethynyl)-pyridin-3-yl]-methanesulfonamide], for which the IC50 in experiment [1] was determined as 4 nM. The EC50 was determined as 2260 nM in experiment [2]; 1810 nM in experiment [3]; 239 nM in experiment [4]; 1330 nM in experiment [5]; 1130 nM in experiment [6].

As to `Cc1cc(C)cc(-c2ncnc(C)c2C#Cc2cnc(C)c(NS(C)(=O)=O)c2)c1` [Example 43, N-{5-[4-(3,5-Dimethyl-phenyl)-6-methyl-pyrimidin-5-ylethynyl]-2-methyl-pyridin-3-yl}-elmethanesulfonamide], the IC50 in experiment [1] turned out to be 3 nM. Further, the EC50 in experiment [2] is 337 nM; in experiment [3] it was 900 nM; in experiment [4] it was 270 nM; in experiment [5], 639 nM; in experiment [6], 897 nM.

In the case of `COc1ncc(C#Cc2c(C)ncnc2-c2ccnc(C)c2)cc1NS(=O)(=O)c1ccc(F)cc1F` [Example 44, 2,4-Difluoro-N-{2-methoxy-5-[4-methyl-6-(2-methyl-pyridin-4-yl)-pyrimidin-5-ylethynyl]-pyridin-3-yl}-benzenesulfonamide], in experiment [1], the IC50 amounted to 0.55 nM. Also, the EC50 in experiment [2] stood at 15 nM; in experiment [3] it was 121 nM; in experiment [4] it was 3 nM; in experiment [5], 37 nM; in experiment [6], 23 nM.

For the molecule `COc1ccc(-c2ncnc(C)c2C#Cc2cnc(OC)c(NS(=O)(=O)c3ccc(F)cc3F)c2)cc1OC` [Example 45, N-{5-[4-(3,4-Dimethoxy-phenyl)-6-methyl-pyrimidin-5-ylethynyl]-2-methoxy-pyridin-3-yl}-2,4-difluoro-benzenesulfonamide], the IC50 in experiment [1] was 1 nM. Moreover, the EC50 in experiment [2] is 11 nM; in experiment [3], 131 nM; in experiment [4] it was 5 nM; in experiment [5], 34 nM; in experiment [6], 10 nM.

Consider `COc1ncc(C#Cc2c(C)ncnc2-c2ccc(C(=O)N3CCN(C)CC3)c(F)c2)cc1NS(=O)(=O)c1ccc(F)cc1F` [Example 46, 2,4-Difluoro-N-(5-{4-[3-fluoro-4-(4-methyl-piperazine-1-carbonyl)-phenyl]-6-methyl-pyrimidin-5-ylethynyl}-2-methoxy-pyridin-3-yl)-benzenesulfonamide], for which the IC50 in experiment [1] was determined as 0.67 nM. Besides, the EC50 came out at 8 nM in experiment [2]; 38 nM in experiment [3]; 5 nM in experiment [4]; 22 nM in experiment [5]; 9 nM in experiment [6].

For `COc1ncc(C#Cc2c(C)ncnc2-c2ccc(C)nc2)cc1NS(=O)(=O)c1ccc(F)cc1F` [Example 47, 2,4-Difluoro-N-{2-methoxy-5-[4-methyl-6-(6-methyl-pyridin-3-yl)-pyrimidin-5-ylethynyl]-pyridin-3-yl}-benzenesulfonamide], the IC50 in experiment [1] is 0.74 nM. Further, the EC50 in experiment [2] came to 7 nM; in experiment [3], 70 nM; in experiment [4], 18 nM; in experiment [5], 29 nM; in experiment [6], 43 nM.

Take `CCc1ncnc(-c2ccc(CNC(=O)OC(C)(C)C)nc2)c1C#Cc1cnc(C)c(NS(=O)(=O)c2ccc(F)cc2F)c1` [Example 48, (5-{5-[5-(2,4-Difluoro-benzenesulfonylamino)-6-methyl-pyridin-3-ylethynyl]-6-ethyl-pyrimidin-4-yl}-pyridin-2-ylmethyl)-carbamic acid tert-butyl ester]: the IC50 in experiment [1] worked out at 0.42 nM. Besides, the concentration giving a half-maximal response (EC50) in experiment [2] was 63 nM; in experiment [3], 89 nM; in experiment [4], 3 nM; in experiment [5] it was 89 nM; in experiment [6], 26 nM.

Consider `CCc1ncnc(-c2ccc(CNC(=O)OC(C)(C)C)nc2)c1C#Cc1cnc(C)c(NS(=O)(=O)c2ccccc2C(F)(F)F)c1` [Example 49, (5-{6-Ethyl-5-[6-methyl-5-(2-trifluoromethyl-benzenesulfonylamino)-pyridin-3-ylethynyl]-pyrimidin-4-yl}-pyridin-2-ylmethyl)-carbamic acid tert-butyl ester], for which, in experiment [1], the half-maximal inhibitory concentration (IC50) was 2 nM. Moreover, the EC50 in experiment [2] stood at 120 nM; in experiment [3], 241 nM; in experiment [4], 57 nM; in experiment [5], 169 nM; in experiment [6] it was 207 nM.

Take `CCc1ncnc(-c2ccc(CNC(=O)OC(C)(C)C)nc2)c1C#Cc1cnc(C)c(NS(=O)(=O)c2ccccc2)c1` [Example 50, {5-[5-(5-Benzene-sulfonylamino-6-methyl-pyridin-3-ylethynyl)-6-ethyl-pyrimidin-4-yl]-pyridin-2-ylmethyl}-carbamic acid tert-butyl ester]: the IC50 in experiment [1] came out at 0.43 nM. In addition, the EC50 amounted to 104 nM in experiment [2]; 104 nM in experiment [3]; 27 nM in experiment [4]; 115 nM in experiment [5]; 102 nM in experiment [6].

Regarding `CCc1ncnc(-c2ccccc2)c1C#Cc1cnc(C)c(NS(C)(=O)=O)c1` [Example 52, N-[5-(4-Ethyl-6-phenyl-pyrimidin-5-ylethynyl)-2-methyl-pyridin-3-yl]-methanesulfonamide], the IC50 in experiment [1] was 3 nM. The EC50 was determined as 1210 nM in experiment [2]; 1020 nM in experiment [3]; 154 nM in experiment [4]; 452 nM in experiment [5]; 520 nM in experiment [6].

Consider `CCc1ncnc(-c2cccc(C#N)c2)c1C#Cc1cnc(C)c(NS(C)(=O)=O)c1` [Example 55, N-{5-[4-(3-Cyano-phenyl)-6-ethyl-pyrimidin-5-ylethynyl]-2-methyl-pyridin-3-yl}-methanesulfonamide], for which, in experiment [1], the IC50 was found to be 3 nM. In addition, the EC50 in experiment [2] amounted to 945 nM; in experiment [3], 609 nM; in experiment [4] it was 126 nM; in experiment [5] it was 317 nM; in experiment [6] it was 302 nM.

For the molecule `CCc1ncnc(-c2ccccc2F)c1C#Cc1cnc(C)c(NS(C)(=O)=O)c1` [Example 57, N-{5-[4-Ethyl-6-(2-fluoro-phenyl)-pyrimidin-5-ylethynyl]-2-methyl-pyridin-3-yl}-methanesulfonamide], the IC50 in experiment [1] turned out to be 8 nM. In addition, the EC50 came out at 3140 nM in experiment [2]; 2660 nM in experiment [3]; 541 nM in experiment [4]; 1620 nM in experiment [5]; 1080 nM in experiment [6].

Turning to `CCc1ncnc(-c2cccc(F)c2)c1C#Cc1cnc(C)c(NS(C)(=O)=O)c1` [Example 61, N-{5-[4-Ethyl-6-(3-fluoro-phenyl)-pyrimidin-5-ylethynyl]-2-methyl-pyridin-3-yl}-methanesulfonamide], the IC50 in experiment [1] was 1 nM. For the same molecule, the EC50 in experiment [2] came to 400 nM; in experiment [3], 321 nM; in experiment [4], 454 nM; in experiment [5], 420 nM; in experiment [6], 693 nM.

`CCc1ncnc(-c2ccccc2OC)c1C#Cc1cnc(C)c(NS(C)(=O)=O)c1` [Example 62, N-{5-[4-Ethyl-6-(2-methoxy-phenyl)-pyrimidin-5-ylethynyl]-2-methyl-pyridin-3-yl}-methanesulfonamide]: in experiment [1], the IC50 amounted to 12 nM. Also, the EC50 was 2760 nM in experiment [2]; 25000 nM in experiment [3]; 1420 nM in experiment [4]; 2900 nM in experiment [5]; no less than 10000 nM in experiment [6].

As for `CCc1ncnc(-c2ccc(F)cc2F)c1C#Cc1cnc(C)c(NS(C)(=O)=O)c1` [Example 63, N-{5-[4-(2,4-Difluoro-phenyl)-6-ethyl-pyrimidin-5-ylethynyl]-2-methyl-pyridin-3-yl}-methanesulfonamide], in experiment [1], the IC50 worked out at 4 nM. Besides, the EC50 in experiment [2] is 1110 nM; in experiment [3] it was 1880 nM; in experiment [4], 734 nM; in experiment [5], 1180 nM; in experiment [6], 1540 nM.

As for `CCc1ncnc(-c2cccc(OC(C)C)c2)c1C#Cc1cnc(C)c(NS(C)(=O)=O)c1` [Example 64, N-{5-[4-Ethyl-6-(3-isopropoxy-phenyl)-pyrimidin-5-ylethynyl]-2-methyl-pyridin-3-yl}-methanesulfonamide], the IC50 in experiment [1] was 2 nM. The EC50 in experiment [2] was 606 nM; in experiment [3] it was 888 nM; in experiment [4], 309 nM; in experiment [5], 621 nM; in experiment [6], 615 nM.

As for `CCc1ncnc(-c2cccc(C(F)(F)F)c2F)c1C#Cc1cnc(C)c(NS(C)(=O)=O)c1` [Example 70, N-{5-[4-Ethyl-6-(2-fluoro-3-trifluoromethyl-phenyl)-pyrimidin-5-ylethynyl]-2-methyl-pyridin-3-yl}-methanesulfonamide], the IC50 in experiment [1] stood at 20 nM. The EC50 was found to be 1180 nM in experiment [2]; 2350 nM in experiment [3]; 374 nM in experiment [4]; 1270 nM in experiment [5]; 1570 nM in experiment [6].
